Literature values as cited in US6482908B1, “Template-directed ring-closing metathesis and ring-opening metathesis polymerization of functionalized dienes” (California Institute of Technology, priority 1997, dated 2002).

Test system: cell attachment and spreading

Gly-Arg-Gly-Asp-Tyr (GRGDY; printed: Gly-Arg-Gly-Asp-Tyr) [oligopeptide immobilized onto glass substrate, literature adhesion agent]
cell adhesion activity of immobilized peptide (immobilized onto a poorly adhesive glass substrate): extremely potent adhesion agent
minimum surface density necessary to induce normal cell attachment and spreading (peptide immobilized onto poorly adhesive glass substrate, ~140 nm between peptides): 10 fmol/cm^2
